Converted amounts (≈) assume the structure as drawn. Like-named read-outs stand apart in the source and are kept apart here.
Legend:
Chlorella pyrenoidosa = experiment: Algae growth inhibition in Difco Algae Broth; type: cell-based; conditions: Auxenochlorella pyrenoidosa, 672 h
Protocol: (§1) The growth inhibiting activity of the method of the invention against the three algae Chlorella pyrenoidosa, Chlorococcum hypnosporum and Phormidium inundatum was evaluated in Difco Algae Broth, the content of which was as follows:
(§2) Forty-gram portions of the algae medium were added to 250 mL Pyrex Erlenmeyer flasks fitted with loose metal caps and then sterilized. Each of the following substances wa then added to the flasks in the order listed:
(§3) 1. Sterile algae medium as required to bring the total weight of the contents of each flask to 50 grams, after allowing for all subsequent additions specified below.
(§4) 2. A solution of the N-dodecyl heterocyclic toxicant or of a control agent to be evaluated in each test, to give the concentration desired in parts per million by weight.
(§5) 3. Chlorella pyrenoidosa, Chlorococcum hypnosporum and Phormidium inundatum in amounts sufficient to give excellent growth in the controls after 14 days. This was achieved by adding 1 milliliter of a 14 day old culture having luxuriant growth. The Chlorella pyrenoidosa culture was obtained from American Type Culture Collection No. 7516; Chlorococcum hynosporum, from the University of Texas at Austin; and Phormidium inundatum, Wisconsin No. 1093, from the University of Washington.
(§6) As a control experiment, WSCP was used as a positive control agent. WSCP is a known toxicant which kills C. pyrenoidosa at 2 ppm, C. hypnosporum at 2 ppm and P. inundatum at 10 ppm. Control experiments were also carried out where no toxicants were also employed. In the algicidal tests the growth of algae in the nutrient medium is lush green and can be seen with the naked eye. Because the minimum inhibitory concentrations of the compounds in this example are those which result in complete inhibition evaluation of the test results is not subjective.
(§7) After the inoculum of the test algae was added, the flasks were incubated at a temperature of 28° ±2° C. under fluorescent illumination of 250 foot-candle intensity (8 hours light, 16 hours darkness) for a period adequate for growth in the controls (those portions of medium which contained no toxicant). Observations of growth were made at 7-day intervals. Minimum inhibitory concentrations are those that prevented complete growth after 28 days.

Phormidium inundatum = experiment: Algae growth inhibition in Difco Algae Broth; type: cell-based; conditions: 672 h
Protocol: as §1, §2, §3, §4, §5, §6, §7

Chlorococcum hypnosporum = experiment: Algae growth inhibition in Difco Algae Broth; type: cell-based; conditions: 672 h
Protocol: as §1, §2, §3, §4, §5, §6, §7

E. aerogenes = experiment: Pulp substrate method, minimum inhibitory concentration; type: cell-based
From the text: The minimum inhibitory concentrations are those in which a percentage kill of at least 80% is obtained.

Aspergillus niger = experiment: Fungal growth inhibition, minimum inhibitory concentration; type: cell-based; conditions: pH 6.0, completely prevented growth, read-out: Minimum inhibitory concentration against fungi
Protocol: The microorganism growth inhibiting activity of N-dodecyl heterocyclic compounds on the fungus Aspergillus niger was evaluated.

P. aeruginosa = experiment: Basal salts method, minimum inhibitory concentration; type: cell-based; conditions: basal salts solution
Protocol: The preferred compounds of the present invention were tested by the pulp substrate method and basal salts method described in U.S. Pat. No. 2,881,070 at column 5, beginning at line 12 and extending to column 6, line 53. The disclosure of U.S. Pat. No. 2,881,070 is specifically incorporated by reference herein. […] The minimum inhibitory concentrations are those in which a percentage kill of at least 80% is obtained.

cholesterol biosynthesis = conditions: rat liver; Baggeley et al.; cited from earlier work
epoxidation of aldrin = conditions: rat liver; Wilkinson et al.; cited from earlier work
[1] = Firestone and Pisano; cited from earlier work
[2] = Barker and Hadgraft; cited from earlier work
[3] = pH 7, read-out: Minimum inhibitory concentration against algae
[4] = C. pyrenoidosa, pH 7.0, 28 days, read-out: Minimum inhibitory concentration against algae
[5] = P. inundatum, pH 7.0, 28 days, read-out: Minimum inhibitory concentration against algae
[6] = C. hypnosporum, pH 7.0, 28 days, read-out: Minimum inhibitory concentration against algae

Structure (SMILES)	MIC (Aspergillus niger) [µg/mL]	MIC (Chlorella pyrenoidosa; [3]) [µg/mL]	MIC (Phormidium inundatum; [3]) [µg/mL]	MIC (Chlorococcum hypnosporum; [3]) [µg/mL]	Minimum inhibitory concentration (E. aerogenes; pH 6.0, at least 80% kill)	Minimum inhibitory concentration (E. aerogenes; pH 8.0, at least 80% kill)	MIC (Chlorella pyrenoidosa; [4]) [µg/mL]	MIC (Phormidium inundatum; [5]) [µg/mL]	MIC (Chlorococcum hypnosporum; [6]) [µg/mL]	Minimum inhibitory concentration (P. aeruginosa; pH 6.0, at least 80% kill)	Minimum inhibitory concentration (P. aeruginosa; pH 8.0, at least 80% kill)	inhibitor of cholesterol biosynthesis (cholesterol biosynthesis)	inhibitor of epoxidation of aldrin (epoxidation of aldrin)	lysosomotropic detergent, useful as anti-cancer compounds and spermicides [1]	help the transport of anionic drugs [2]
CCCCCCCCCCCCN1CCCCCC1 [Compound 6, N-Dodecylhexamethyleneimine]	256 (≈ 957 µM)	1 (≈ 3.74 µM)	10 (≈ 37.4 µM)	1 (≈ 3.74 µM)	> 1000	1000									
CCCCCCCCCCCCN1CC(C)OC(C)C1 (centres unmarked) [Compound 3, N-dodecyl-2,6-dimethylmorpholine]	128 (≈ 451 µM)				1000	1000	10 (≈ 35.3 µM)	1000 (≈ 3530 µM)	< 1						
CCCCCCCCCCCCN1CCC(C)CC1 [Compound 10, N-Dodecyl-4-methylpiperidine]	1000 (≈ 3740 µM)				100	> 1000	< 1	< 1	< 1						
CCCCCCCCCCCCN1CCCCC1C (centres unmarked) [Compound 11, N-Dodecyl-2-methylpiperidine]	1000 (≈ 3740 µM)	< 1	5 (≈ 18.7 µM)	< 1	100	> 1000									
CCCCCCCCCCCCN1CCCCC1 [Compound 9, N-Dodecylpiperidine]	32 (≈ 126 µM)	1 (≈ 3.95 µM)	10 (≈ 39.5 µM)	1 (≈ 3.95 µM)	1000	1000									
CCCCCCCCCCCCN1CCCC1 [Compound 7, N-Dodecylpyrrolidine]	128 (≈ 535 µM)	1 (≈ 4.18 µM)	1 (≈ 4.18 µM)	1 (≈ 4.18 µM)	1000	> 1000									
CCCCCCCCCCCCN1CC(CCl)OC1=O (centres unmarked) [Compound 4, N-dodecyl-5-chloromethyl-2-oxazolidinone]	> 512				1000	1000	100 (≈ 329 µM)	100 (≈ 329 µM)	100 (≈ 329 µM)						

More lines, main results first:

MIC (Aspergillus niger) [µg/mL]	Structure (SMILES)	MIC (Chlorella pyrenoidosa; [3]) [µg/mL]	MIC (Phormidium inundatum; [3]) [µg/mL]	MIC (Chlorococcum hypnosporum; [3]) [µg/mL]	Minimum inhibitory concentration (E. aerogenes; pH 6.0, at least 80% kill)	Minimum inhibitory concentration (E. aerogenes; pH 8.0, at least 80% kill)	MIC (Chlorella pyrenoidosa; [4]) [µg/mL]	MIC (Phormidium inundatum; [5]) [µg/mL]	MIC (Chlorococcum hypnosporum; [6]) [µg/mL]	Minimum inhibitory concentration (P. aeruginosa; pH 6.0, at least 80% kill)	Minimum inhibitory concentration (P. aeruginosa; pH 8.0, at least 80% kill)	inhibitor of cholesterol biosynthesis (cholesterol biosynthesis)	inhibitor of epoxidation of aldrin (epoxidation of aldrin)	lysosomotropic detergent, useful as anti-cancer compounds and spermicides [1]	help the transport of anionic drugs [2]
32 (≈ 135 µM)	CCCCCCCCCCCCn1ccnc1 [Compound 2, N-Dodecylimidazole]				1000	> 1000	0.5 (≈ 2.12 µM)	2 (≈ 8.46 µM)	0.7 (≈ 2.96 µM)	4	10	inhibitor of cholesterol biosynthesis in rat liver	inhibitor of epoxidation of aldrin of rat liver	lysosomotropic detergents	
32 (≈ 126 µM)	CCCCCCCCCCCCN1CCCC1=O [Compound 5, N-Dodecyl-2-pyrrolidinone]				1000	1000	10 (≈ 39.5 µM)	10 (≈ 39.5 µM)	10 (≈ 39.5 µM)						
> 100	CCCCCCCCCCCCN1CCOCC1 [Compound 1, N-Dodecylmorpholine]				25	25	1 (≈ 3.91 µM)		1 (≈ 3.91 µM)	8	40			lysosomotropic detergents	help the transport of anionic drugs
256 (≈ 957 µM)	CCCCCCCCCCCCN1CCCC(C)C1 (centres unmarked) [Compound 8, N-dodecyl-3-methylpiperidine]				1000	> 1000	10 (≈ 37.4 µM)	10 (≈ 37.4 µM)	1 (≈ 3.74 µM)						
